# Source: patent US9724315B2, “Compounded transdermal pain management” (CMPD Licensing, LLC, priority 2011, dated 2017)
# Structures can show the parent of a compound that is named as a salt. Where two headings read alike, the source gives them in different places.
# Details: for mean flux of percutaneous absorption: ex vivo human trunk skin; for percent permeation of applied dose beyond the stratum corneum: single dose, four drugs in combination; for time of (initial) peak flux after dose application: base composition Lipoderm ActiveMax, four drugs applied in combination
# Procedure: An evaluation of the percutaneous absorption of ketamine HCL, gabapentin, clonidine HCL, and baclofen in both Lipoderm® and Lipoderm® ActiveMax™ into human trunk skin, in vitro, using the Franz skin finite dose model was performed. The study was designed to evaluate the percutaneous absorption harmacokinetics of ketamine HCL, gabapentin, clonidine HCL, and baclofen. Absorption was measured in human cadaver skin, in vitro, using the finite dose technique and Franz diffusion cells.
# Ketamine HCL 5% w/w, gabapentin 10% w/w, clonidine HCL 0.2% w/w and baclofen 2% w/w, in Lipoderm® and Lipoderm® ActiveMax, were tested on triplicate sections from three different cadaver skin donors for the percutaneous absorption of ketamine HCL, gabapentin, clonidine HCL, and baclofen over a 48-hour dose period. At pre-selected times after dose application, the dermal receptor solution was removed in its entirety, replaced with fresh receptor solution, and an aliquot saved for subsequent analysis. In addition, the epidermis and dermis were recovered and evaluated for drug content. The samples were analyzed for ketamine HCL, gabapentin, clonidine HCL, and baclofen content by High Performance Liquid Chromatography (HPLC)/MS.
# The model uses ex vivo animal, human cadaver, or surgical skin mounted in specially designed diffusion cells that allow the skin to be maintained at a temperature and humidity that match typical in vivo conditions. (See Franz, T. J., Percutaneous Absorption: On the Relevance of In Vitro Data. J. Invest. Dermatol, 1975, 64:190-195.)
# A finite dose (e.g., 4-7 mg/cm^2) of formulation may be applied to the outer surface of the skin and drug absorption may be measured by monitoring its rate of appearance in the receptor solution bathing the inner surface of the skin. Data defining total absorption, rate of absorption, as well as skin content may be accurately determined in this model. The method has historic precedent for accurately predicting in vivo percutaneous absorption kinetics. (See Franz T. J., The Cadaver Skin Absorption Mode and the Drug Development Process. Pharmacopeial Forum 34(5): 1349-1356, 2008; see also Franz T. J., Lehman P. A., and Raney S., Use of Excised Human Skin to Assess the Bioequivalence of Topical Products. Skin Pharmacol Physiol 22:276-286, 2009.)
# During the evaluation, percutaneous adsorption was measured using the in vitro cadaver skin finite dose technique. Human cadaver trunk skin without obvious signs of skin disease, obtained within approximately 24 to 48 hours of death, was used in this study. The skin was dermatomed, cryopreserved, sealed in a water-impermeable bag and stored at approximately −70° C. until the day of the experiment. Prior to use, the skin was thawed in approximately 37° C. water, then rinsed in water to remove any adherent blood or other material from the surface.
# Skin from three donors was cut into multiple smaller sections large enough to fit on an approximately nominal 0.8 cm^2 Franz diffusion cells. The dermal chamber was filled to capacity with a reservoir solution of phosphate-buffered isotonic saline (PBS), pH 7.4±0.1, with 0.1% Oleth-20 and 0.008% Gentamicin, and the epidermal cell (chimney) left open to ambient laboratory conditions. All cells were mounted in a diffusion apparatus in which the dermal bathing solution was stirred magnetically at approximately 600 RPM and the skin surface temperature maintained at 32.0°±1.0° C.
# To assure the integrity of each skin section, its permeability to tritiated water was determined before application of the test products. (See Franz T. J. and Lehman P. A., The Use of Water Permeability as a Means of Validation for Skin Integrity in In Vitro Percutaneous Absorption Studies. Abst. J. Invest. Dermatol 1990, 94:525.) Following a brief (0.5-1 hour) equilibrium period, ^3H2O (NEN, Boston, Mass., sp. Act. ˜0.5 μCi/mL) was layered across the top of the skin so that the entire exposed surface was covered (approximately 250 to 500 μL).
# [1] = Lipoderm ActiveMax base, about 1 hour after single application
# [2] = Lipoderm ActiveMax base, about 3 hours after single application
# [3] = Lipoderm ActiveMax base, about 6 hours after single application
# [4] = Lipoderm ActiveMax base, about 10 hours after single application
# [5] = Lipoderm ActiveMax base, about 18 hours after single application
# [6] = Lipoderm ActiveMax base, about 28 hours after single application
# [7] = Lipoderm ActiveMax base, about 40 hours after single application
# [8] = Lipoderm ActiveMax base, four drugs simultaneously, intact
SMILES,mean flux using Lipoderm ActiveMax compared with Lipoderm,minimum mean flux using Lipoderm ActiveMax compared with Lipoderm,penetration of skin from the base composition,mean flux of percutaneous absorption [1],mean flux of percutaneous absorption [2],mean flux of percutaneous absorption [3],mean flux of percutaneous absorption [4],mean flux of percutaneous absorption [5],mean flux of percutaneous absorption [6],mean flux of percutaneous absorption [7],penetration of skin from the base composition [8],"maximum mean flux (Lipoderm ActiveMax base, single application, 48 hours)",percent permeation of applied dose beyond the stratum corneum (Lipoderm ActiveMax base),percent permeation of applied dose beyond the stratum corneum (Lipoderm base),"mean flux using Lipoderm ActiveMax compared with Lipoderm (ketamine: most of the 48 hours, from about 2 hours, clonidine: about two to about 40 hours after application)","maximum mean flux using Lipoderm ActiveMax compared with Lipoderm (single application, 48 hours)",time of (initial) peak flux after dose application
"Clc1cccc(Cl)c1N=C1NCCN1 [clonidine, clonidine HCL]",exceed,exceeded,penetrate into and through ex vivo human trunk skin,approximately 0.005 μg/cm^2/hr,approximately 0.007 μg/cm^2/hr,approximately 0.006 μg/cm^2/hr,approximately 0.008 μg/cm^2/hr,approximately 0.008 μg/cm^2/hr,approximately 0.011 μg/cm^2/hr,approximately 0.011 μg/cm^2/hr,,,,,,,
"CNC1(c2ccccc2Cl)CCCCC1=O (stereo not drawn) [ketamine, ketamine HCL]",,,,approximately 0.75 μg/cm^2/hr,approximately 3.0 μg/cm^2/hr,approximately 4.1 μg/cm^2/hr,approximately 4.3 μg/cm^2/hr,approximately 2.4 μg/cm^2/hr,approximately 2.5 μg/cm^2/hr,approximately 1.9 μg/cm^2/hr,penetrate into and through ex vivo human trunk skin,approximately 4.3 μg/cm^2/hr,approximately 53.4%,approximately 44.8%,exceed,exceeded,
NCC1(CC(=O)O)CCCCC1 [gabapentin],,,,,,,,,,,penetrate into and through ex vivo human trunk skin,,approximately 2.6%,,,,approximately one
NCC(CC(=O)O)c1ccc(Cl)cc1 (stereo not drawn) [baclofen],,,,,,,,,,,penetrate into and through ex vivo human trunk skin,,approximately 5.5%,approximately 3.95%,,,approximately one
